“Also recorded” adds a separate entry of the source.
Legend:
CHO-K1 cells = experiment: In vitro micronucleus assay (cytokinesis-block, OECD 487, GLP) with and without S9 metabolic activation; assay type: cell-based; conditions: for concentration-related increase in frequency of MN: Chi-square test for trend; for micronucleus frequency / MN formation compared with the concurrent negative control: with and without metabolic activation, Chi-square test with Yates' correction
From the text: The in vitro Micronucleus Assay (MNA) is a mutagenic test system for the detection of chemicals that induce the formation of small membrane-bound DNA fragments (micronuclei (MN)) in the cytoplasm of interphase cells. The MNA, used for regulatory purposes measures formation of chromosomal changes following DNA damage induced by the compounds under test, and is used to predict the genotoxic potential of pharmaceuticals, industrial chemicals, food additives and cosmetic ingredients.
MN originate from chromosome fragments or whole chromosomes that are not included in the main daughter nuclei during nuclear division. They reflect chromosome damage and may thus provide a marker of genotoxicity and even early-stage carcinogenesis. The most commonly used method in mammalian cells is the cytokinesis-block micronucleus (CBMN) assay. In the CBMN assay, MN are scored after a single cell division using binucleated cultured cells (accumulated using cytochalasin B) to eliminate the confounding effect of altered cell division kinetics on the MN index.
The formation of MN is a consequence of chromosomal breakage and/or spindle-fiber dysfunction induced by clastogens and/or aneuploidogens.
DMSO controls were run concurrently for each experiment.
Micronucleus frequency was analyzed in at least 2000 binucleate cells per concentration and control.
In order to assess genotoxic potential. […] Statistical analysis of the MN frequency and binucleate cells with MN was performed using the Chi-square test with Yates' correction. To examine the dose-response relationship in frequencies of the micronuclei Chi-square test for trend was performed.

rat = experiment: Acute toxicology following intravenous administration of a single dose; assay type: in vivo
Description: 1. Acute toxicology of 2,3-dimethoxy-N-methylbenzhydroxamic acid (XIII) following intra venous administration of a single dose.
In the preliminary phase, 1 male and 1 female rat were dosed at 200 mg/kg and observed for a period of 7 days. […] A further group of 1 male and 1 female animals was dosed at a dose level of 300 mg/kg. […] Recovery occurred approximately 4 hours after dosing.
In the main phase of the study, 1 group of 5 male and 5 female animals was dosed at 300 mg/kg and observed for a period of 14 days. […] Recovery occurred by Day 3.

[1] = both, rat, in vivo, iv, 300 mg/kg
[2] = rat, single i.v. dose of 300 mg/kg body weight

Compound: O=P1(N(CCCl)CCCl)NCCCO1 (centres unmarked) [CP, cyclophosphamide, reference compound]
- concentration-related increase in frequency of MN (CHO-K1 cells): increased
- micronucleus frequency / MN formation compared with the concurrent negative control (CHO-K1 cells): significantly induced

Compound: COc1ccc(C(=O)N(C)O)cc1OC [LK 614, 3,4-dimethoxy-N-methylbenzhydroxamic acid]
- dose-dependent genetic toxicity (summary) (CHO-K1 cells): did not produce dose-dependent genetic toxicity
- genotoxicity (MNA test result) (CHO-K1 cells; +S9 short, -S9 short and -S9 extended treatment): no genotoxicity
- concentration-related increase in frequency of MN (CHO-K1 cells): not observed; also recorded: no dose-related increase
- micronucleus frequency / MN formation compared with the concurrent negative control (CHO-K1 cells): did not exhibit statistically significant increase; also recorded: None of tested concentrations of test item, LK 614, exhibits a statistically significant increase

Compound: COc1cccc(C(=O)N(C)O)c1OC [XIII, 2,3-dimethoxy-N-methylbenzhydroxamic acid]
- recovery (rat; [1]): ≤ 3 days
- recovery after dosing (rat; [1]): approximately 4 hours
- mortality (rat; main phase, 5 male and 5 female rats, 300 mg/kg i.v. single dose, observed 14 days): No mortality occurred
- mortality (rat; preliminary phase, 1 male and 1 female rat, 200 mg/kg i.v. single dose, observed 7 days): No mortality
- necropsy examination (rat; rat, in vivo): No abnormalities
- clinical signs (rat; rat, in vivo, iv, 200 mg/kg): no clinical signs
- tolerability of dose level (rat; [2]): reasonably tolerated
- toxic effect (overall conclusion) (rat; [2]): slight toxic effect

From patent publication EP4248959A1, “PREPARATION FOR REDUCTION OF PATHOLOGICAL IRON OVERLOAD” (Dr. Franz Köhler Chemie GmbH, priority 2022, dated 2023)
